Measured values published in the supplement of paper PMC10307832.

Key:
Assay in all cases: relative viability (nuclei count vs DMSO), 5 days (fraction); higher = more cells survive
ABC-1 = test system: ABC-1
Summary of the method: (§1)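 For relative viability, nuclei counts in treated wells were divided by those in vehicle wells. Lung cancer cell lines had been pin-tool dosed in 1536-well plates the day after seeding and cultured for 5 days, then fixed and stained in one step (final 0.05% Triton X-100, 1% formaldehyde, 1 ug/ml Hoechst) and imaged at 4×. Doses were one drug alone or a fixed anchor-drug dose plus five library-drug doses (not always all listed) in √10 steps, and values are duplicate-plate medians.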

COR-L23 = test system: COR-L23
Summary of the method: as §1

EMC-BAC-2 = test system: EMC-BAC-2
Summary of the method: as §1

HARA = test system: HARA
Summary of the method: as §1

HCC-15 = test system: HCC-15
Summary of the method: as §1

HCC-366 = test system: HCC-366
Summary of the method: as §1

HCC-78 = test system: HCC-78
Summary of the method: as §1

HOP-62 = test system: HOP-62
Summary of the method: as §1

LC-2-ad = test system: LC-2-ad
Summary of the method: as §1

NCI-H1395 = test system: NCI-H1395
Summary of the method: as §1

NCI-H1793 = test system: NCI-H1793
Summary of the method: as §1

NCI-H1944 = test system: NCI-H1944
Summary of the method: as §1

NCI-H1993 = test system: NCI-H1993
Summary of the method: as §1

NCI-H2023 = test system: NCI-H2023
Summary of the method: as §1

NCI-H2126 = test system: NCI-H2126
Summary of the method: as §1

NCI-H2228 = test system: NCI-H2228
Summary of the method: as §1

NCI-H23 = test system: NCI-H23
Summary of the method: as §1

NCI-H2405 = test system: NCI-H2405
Summary of the method: as §1

NCI-H358 = test system: NCI-H358
Summary of the method: as §1

NCI-H838 = test system: NCI-H838
Summary of the method: as §1

SK-LU-1 = test system: SK-LU-1
Summary of the method: as §1

COc1nc(C)cnc1NS(=O)(=O)c1cccnc1-c1ccc(-c2nnco2)cc1 [Zibotentan] + Cc1nc(NC(=O)N2CCC[C@H]2C(N)=O)sc1-c1ccnc(C(C)(C)C(F)(F)F)c1 [Alpelisib] (partner 2 µM)
relative viability (ABC-1; first compound 0.08 µM): 1.1
relative viability (ABC-1; first compound 0.253 µM): 0.689
relative viability (ABC-1; first compound 0.8 µM): 1.11
relative viability (ABC-1; first compound 2.53 µM): 1.07
relative viability (COR-L23; first compound 0.08 µM): 0.847
relative viability (COR-L23; first compound 0.253 µM): 0.655
relative viability (COR-L23; first compound 0.8 µM): 0.831
relative viability (COR-L23; first compound 2.53 µM): 0.824
relative viability (EMC-BAC-2; first compound 0.08 µM): 0.78
relative viability (EMC-BAC-2; first compound 0.253 µM): 0.72
relative viability (EMC-BAC-2; first compound 0.8 µM): 0.714
relative viability (EMC-BAC-2; first compound 2.53 µM): 0.782
relative viability (HARA; first compound 0.08 µM): 0.856
relative viability (HARA; first compound 0.253 µM): 0.764
relative viability (HARA; first compound 0.8 µM): 0.686
relative viability (HARA; first compound 2.53 µM): 0.89
relative viability (HCC-15; first compound 0.08 µM): 0.954
relative viability (HCC-15; first compound 0.253 µM): 0.884
relative viability (HCC-15; first compound 0.8 µM): 0.869
relative viability (HCC-15; first compound 2.53 µM): 0.844
relative viability (HCC-366; first compound 0.08 µM): 0.561
relative viability (HCC-366; first compound 0.253 µM): 0.373
relative viability (HCC-366; first compound 0.8 µM): 0.474
relative viability (HCC-366; first compound 2.53 µM): 0.497
relative viability (HCC-78; first compound 0.08 µM): 0.342
relative viability (HCC-78; first compound 0.253 µM): 0.342
relative viability (HCC-78; first compound 0.8 µM): 0.23
relative viability (HCC-78; first compound 2.53 µM): 0.374
relative viability (HOP-62; first compound 0.08 µM): 1.01
relative viability (HOP-62; first compound 0.253 µM): 1.03
relative viability (HOP-62; first compound 0.8 µM): 1.12
relative viability (HOP-62; first compound 2.53 µM): 0.911
relative viability (LC-2-ad; first compound 0.08 µM): 0.852
relative viability (LC-2-ad; first compound 0.253 µM): 0.869
relative viability (LC-2-ad; first compound 0.8 µM): 0.92
relative viability (LC-2-ad; first compound 2.53 µM): 1.03
relative viability (NCI-H1395; first compound 0.08 µM): 1.28
relative viability (NCI-H1395; first compound 0.253 µM): 0.993
relative viability (NCI-H1395; first compound 0.8 µM): 1.18
relative viability (NCI-H1395; first compound 2.53 µM): 1.42
relative viability (NCI-H1793; first compound 0.08 µM): 0.821
relative viability (NCI-H1793; first compound 0.253 µM): 0.53
relative viability (NCI-H1793; first compound 0.8 µM): 0.852
relative viability (NCI-H1793; first compound 2.53 µM): 0.713
relative viability (NCI-H1944; first compound 0.08 µM): 0.915
relative viability (NCI-H1944; first compound 0.253 µM): 0.808
relative viability (NCI-H1944; first compound 0.8 µM): 0.756
relative viability (NCI-H1944; first compound 2.53 µM): 0.888
relative viability (NCI-H1993; first compound 0.253 µM): 0.679
relative viability (NCI-H1993; first compound 0.8 µM): 0.652
relative viability (NCI-H1993; first compound 2.53 µM): 0.766
relative viability (NCI-H2023; first compound 0.08 µM): 0.632
relative viability (NCI-H2023; first compound 0.253 µM): 0.485
relative viability (NCI-H2023; first compound 0.8 µM): 0.658
relative viability (NCI-H2023; first compound 2.53 µM): 0.591
relative viability (NCI-H2126; first compound 0.08 µM): 0.827
relative viability (NCI-H2126; first compound 0.253 µM): 0.755
relative viability (NCI-H2126; first compound 0.8 µM): 0.726
relative viability (NCI-H2126; first compound 2.53 µM): 0.762
relative viability (NCI-H2228; first compound 0.08 µM): 0.66
relative viability (NCI-H2228; first compound 0.253 µM): 0.652
relative viability (NCI-H2228; first compound 0.8 µM): 0.59
relative viability (NCI-H2228; first compound 2.53 µM): 0.873
relative viability (NCI-H23; first compound 0.08 µM): 0.679
relative viability (NCI-H23; first compound 0.253 µM): 0.7
relative viability (NCI-H23; first compound 0.8 µM): 0.681
relative viability (NCI-H23; first compound 2.53 µM): 0.726
relative viability (NCI-H2405; first compound 0.08 µM): 0.787
relative viability (NCI-H2405; first compound 0.253 µM): 0.65
relative viability (NCI-H2405; first compound 0.8 µM): 0.745
relative viability (NCI-H2405; first compound 2.53 µM): 0.948
relative viability (NCI-H358; first compound 0.08 µM): 1
relative viability (NCI-H358; first compound 0.8 µM): 0.891
relative viability (NCI-H358; first compound 2.53 µM): 0.848
relative viability (NCI-H838; first compound 0.08 µM): 0.957
relative viability (NCI-H838; first compound 0.253 µM): 1.01
relative viability (NCI-H838; first compound 0.8 µM): 0.956
relative viability (NCI-H838; first compound 2.53 µM): 1.05
relative viability (SK-LU-1; first compound 0.08 µM): 1.08
relative viability (SK-LU-1; first compound 0.253 µM): 0.629
relative viability (SK-LU-1; first compound 0.8 µM): 1.12
relative viability (SK-LU-1; first compound 2.53 µM): 0.907

COc1nc(C)cnc1NS(=O)(=O)c1cccnc1-c1ccc(-c2nnco2)cc1 [Zibotentan] + CS(=O)(=O)CCNCc1ccc(-c2ccc3ncnc(Nc4ccc(OCc5cccc(F)c5)c(Cl)c4)c3c2)o1 [Lapatinib] (partner 2 µM)
relative viability (ABC-1; first compound 0.08 µM): 1.28
relative viability (ABC-1; first compound 0.253 µM): 0.885
relative viability (ABC-1; first compound 0.8 µM): 0.971
relative viability (ABC-1; first compound 2.53 µM): 1.28
relative viability (COR-L23; first compound 0.08 µM): 1.21
relative viability (COR-L23; first compound 0.253 µM): 0.849
relative viability (COR-L23; first compound 0.8 µM): 0.922
relative viability (COR-L23; first compound 2.53 µM): 0.798
relative viability (EMC-BAC-2; first compound 0.08 µM): 0.958
relative viability (EMC-BAC-2; first compound 0.253 µM): 0.805
relative viability (EMC-BAC-2; first compound 0.8 µM): 0.873
relative viability (EMC-BAC-2; first compound 2.53 µM): 0.858
relative viability (HARA; first compound 0.08 µM): 0.734
relative viability (HARA; first compound 0.253 µM): 0.813
relative viability (HARA; first compound 0.8 µM): 0.742
relative viability (HARA; first compound 2.53 µM): 0.837
relative viability (HCC-15; first compound 0.08 µM): 0.954
relative viability (HCC-15; first compound 0.253 µM): 0.858
relative viability (HCC-15; first compound 0.8 µM): 0.951
relative viability (HCC-15; first compound 2.53 µM): 0.828
relative viability (HCC-366; first compound 0.08 µM): 1.17
relative viability (HCC-366; first compound 0.253 µM): 0.955
relative viability (HCC-366; first compound 0.8 µM): 0.653
relative viability (HCC-366; first compound 2.53 µM): 1.02
relative viability (HCC-78; first compound 0.08 µM): 0.844
relative viability (HCC-78; first compound 0.253 µM): 0.701
relative viability (HCC-78; first compound 0.8 µM): 0.847
relative viability (HCC-78; first compound 2.53 µM): 0.788
relative viability (HOP-62; first compound 0.08 µM): 0.957
relative viability (HOP-62; first compound 0.253 µM): 1.12
relative viability (HOP-62; first compound 0.8 µM): 1.22
relative viability (HOP-62; first compound 2.53 µM): 1.25
relative viability (LC-2-ad; first compound 0.08 µM): 0.962
relative viability (LC-2-ad; first compound 0.253 µM): 0.944
relative viability (LC-2-ad; first compound 0.8 µM): 1.06
relative viability (LC-2-ad; first compound 2.53 µM): 1.01
relative viability (NCI-H1395; first compound 0.08 µM): 1.08
relative viability (NCI-H1395; first compound 0.253 µM): 0.883
relative viability (NCI-H1395; first compound 0.8 µM): 0.952
relative viability (NCI-H1395; first compound 2.53 µM): 1.08
relative viability (NCI-H1793; first compound 0.08 µM): 0.903
relative viability (NCI-H1793; first compound 0.253 µM): 0.645
relative viability (NCI-H1793; first compound 0.8 µM): 0.596
relative viability (NCI-H1793; first compound 2.53 µM): 0.938
relative viability (NCI-H1944; first compound 0.08 µM): 1.06
relative viability (NCI-H1944; first compound 0.253 µM): 0.7
relative viability (NCI-H1944; first compound 0.8 µM): 0.747
relative viability (NCI-H1944; first compound 2.53 µM): 0.762
relative viability (NCI-H1993; first compound 0.253 µM): 0.792
relative viability (NCI-H1993; first compound 0.8 µM): 0.88
relative viability (NCI-H1993; first compound 2.53 µM): 0.768
relative viability (NCI-H2023; first compound 0.08 µM): 0.87
relative viability (NCI-H2023; first compound 0.253 µM): 0.4
relative viability (NCI-H2023; first compound 0.8 µM): 0.651
relative viability (NCI-H2023; first compound 2.53 µM): 0.846
relative viability (NCI-H2126; first compound 0.08 µM): 0.79
relative viability (NCI-H2126; first compound 0.253 µM): 0.724
relative viability (NCI-H2126; first compound 0.8 µM): 0.662
relative viability (NCI-H2126; first compound 2.53 µM): 0.779
relative viability (NCI-H2228; first compound 0.08 µM): 1.41
relative viability (NCI-H2228; first compound 0.253 µM): 1
relative viability (NCI-H2228; first compound 0.8 µM): 0.989
relative viability (NCI-H2228; first compound 2.53 µM): 1.1
relative viability (NCI-H23; first compound 0.08 µM): 1.22
relative viability (NCI-H23; first compound 0.253 µM): 0.987
relative viability (NCI-H23; first compound 0.8 µM): 1.19
relative viability (NCI-H23; first compound 2.53 µM): 1.26
relative viability (NCI-H2405; first compound 0.08 µM): 1.18
relative viability (NCI-H2405; first compound 0.253 µM): 0.84
relative viability (NCI-H2405; first compound 0.8 µM): 1.06
relative viability (NCI-H2405; first compound 2.53 µM): 1.09
relative viability (NCI-H358; first compound 0.08 µM): 0.453
relative viability (NCI-H358; first compound 0.8 µM): 0.469
relative viability (NCI-H358; first compound 2.53 µM): 0.503
relative viability (NCI-H838; first compound 0.08 µM): 0.938
relative viability (NCI-H838; first compound 0.253 µM): 0.838
relative viability (NCI-H838; first compound 0.8 µM): 0.922
relative viability (NCI-H838; first compound 2.53 µM): 1.06
relative viability (SK-LU-1; first compound 0.08 µM): 0.831
relative viability (SK-LU-1; first compound 0.253 µM): 0.766
relative viability (SK-LU-1; first compound 0.8 µM): 0.928
relative viability (SK-LU-1; first compound 2.53 µM): 0.878
